Test [1] has as its target T1, mixture of P197S and W574L ALS enzymes (Arabidopsis thaliana, UniProt P17597).
T1 construct: crude E. coli extract was used
Format: biochemical. The conditions noted are these: for pI50 P197S & W574L: calculated for a mixture of equal activities of the two enzymes, pI50=3.0 used where measured <4; for Resistance Factor P197S & W574L: relative to WT, calculated. Here is the method: (§1) Assays were initiated by adding enzyme and terminated after 75 min incubation at 30° C. by the addition to 40 μl 0.5 M H2SO4. […] Reaction velocities were tiffed to the Michalis-Menten equation with the XLFit curve fitting program.
(§2) To characterize the response of a mixture of two different ALS enzymes to a given ALS inhibitor the following assumptions were made: • a inhibition is competitive and reversible • b. in the absence of inhibitor, equal activities of the ALS (mutant) enzymes 1 and 2 are present
(§3) Using experimentally determined pI50-values for various ALS-inhibiting herbicides, enzyme activities at different inhibitor concentrations were calculated (see Theory) for each ALS enzyme. Total ALS activity at any given inhibitor concentration is the sum of the activity of (mutant) enzyme 1 and (mutant) enzyme 2. If the experimentally determined pI50-value was <4, pI50=3.0 was used for the calculations. If the calculated pI50-value was 3.0, the pI50 was redefined as <4.

The target in test [2] is T2, mixture of S653N and W574L ALS enzymes (Arabidopsis thaliana, UniProt P17597).
T2 construct: crude E. coli extract was used
Format: biochemical. To be noted: for pI50 S653N & W574L: calculated for a mixture of equal activities of the two enzymes, pI50=3.0 used where measured <4; for Resistance Factor S653N & W574L: relative to WT, calculated. Here is the method:
as §1, §2, §3

The subject of test [3] is spring oilseed rape variety ABILITY. Kind of test: Herbicide tolerance in the field, visible phytotoxicity. Format: in vivo, Brassica napus. To be noted: ABILITY, field, 18 days after application, 0%=no phytotoxic effects, 100%=all plants killed. The text has this:
(§4) Seeds of spring oilseed rape homozygous for HETO108 and HETO121 were sown in a field according to typical practical agricultural methods. The registered spring oilseed rape variety ABILITY served as a comparison. All plants were cultivated up to BBCH stage 14 (four true leaves of the oilseed rape plants). Afterwards, the herbicides mentioned in table 2 have been applied to the oilseed rape plants by using specific spray equipment for small plot applications. The water amount used was 200 L/ha.

Test [4] has as its system spring oilseed rape homozygous for HETO108 and HETO121. The test is described as above. It is filed as in vivo, Brassica napus. The conditions noted are these: HETO108-HETO121, field, 18 days after application, 0%=no phytotoxic effects, 100%=all plants killed.
Source text: as §4

The target of test [5] is T3, Arabidopsis thaliana W574L-mutant ALS (Arabidopsis thaliana, UniProt P17597, E575Q/W574L).
T3 construct: vector-encoded N-terminal fusion of pET-32a(+) (Trx/His/S tag by own knowledge); made in house; host or cells: Escherichia coli AD494
Briefly: biochemical. The conditions noted are these: for IC50: read-out: pI50 W574L (converted); for Resistance Factor W574L: relative to WT, from measured pI50. On the procedure:
(§5) Bacteria were grown at 37° C. in LB-medium containing 100 mg/1 carbenicillin and 25 mg/1 canamycin, induced with 1 mM isopropyl-β-D-thiogalactopyranoside at an OD600 of 0.6, cultivated for 16 hours at 18° C. and harvested by centrifugation. Bacterial pellets were resusupended in 100 mM sodium phosphate buffer pH 7.0 containing 0.1 mM thiamine-pyrophosphate, 1 mM MgCl2, and 1 μM FAD at a concentration of 1 gram wet weight per 25 ml of buffer and disrupted by sonification. The crude protein extract obtained after centrifugation was used for ALS activity measurements.
as §1

Test [6] addresses T4, Arabidopsis thaliana P197S-mutant ALS (Arabidopsis thaliana, UniProt P17597, E575Q/P197S).
T4 construct: vector-encoded N-terminal fusion of pET-32a(+) (Trx/His/S tag by own knowledge); made in house; host or cells: Escherichia coli AD494
Kind of test: biochemical. To be noted: for IC50: read-out: pI50 P197S (converted); for Resistance Factor P197S: relative to WT, from measured pI50. On the procedure: as §5, §1

Test [7] has as its target T5, Arabidopsis thaliana S653N-mutant ALS (Arabidopsis thaliana, UniProt P17597, E575Q/S653N).
T5 construct: vector-encoded N-terminal fusion of pET-32a(+) (Trx/His/S tag by own knowledge); made in house; host or cells: Escherichia coli AD494
Briefly: biochemical. To be noted: for IC50: read-out: pI50 S653N (converted); for Resistance Factor S653N: relative to WT, from measured pI50. Here is the method:
as §5, §1

Test [8] has as its target T6, Arabidopsis thaliana wild-type ALS (Arabidopsis thaliana, UniProt P17597, E575Q).
T6 construct: vector-encoded N-terminal fusion of pET-32a(+) (Trx/His/S tag by own knowledge); made in house; host or cells: Escherichia coli AD494
Briefly: biochemical. To be noted: measured, crude extract of E. coli expressed enzyme; for IC50: read-out: pI50 WT (converted). Here is the method: as §5, §1

Setting [9] is: Brassica napus, topical, 432 h, AI dose rate 40 gai/ha, read-out: % phytotox.
Setting [10] is: measured, crude extract of E. coli expressed enzyme.
Setting [11] is: Brassica napus, topical, 432 h, AI dose rate 30 gai/ha, read-out: % phytotox.
Setting [12] is: Brassica napus, topical, 432 h, AI dose rate 60 gai/ha, read-out: % phytotox.
[13] abbreviates: Brassica napus, topical, 432 h, AI dose rate 12.5 gai/ha, read-out: % phytotox.
[14] abbreviates: Brassica napus, topical, 432 h, AI dose rate 10 gai/ha, read-out: % phytotox.
[15] abbreviates: Brassica napus, topical, 432 h, AI dose rate 5 gai/ha, read-out: % phytotox.

For `COCc1cnc(C2=NC(C)(C(C)C)C(=O)N2)c(C(=O)O)c1` (stereo not shown) [Imazamox, imazamox], in test [1], the “pI50 P197S & W574L” value is 4.1. In addition, in test [1], the “Resistance Factor P197S & W574L” value is 20. Further, the “pI50 S653N & W574L” value in test [2] is listed as under 4. Further, in test [2], the “Resistance Factor S653N & W574L” value is listed as over 25. Moreover, the pest or weed control at 40 g/ha in test [3] (setting [9]) worked out at 99%; in test [4] (setting [9]) it was 19%. Moreover, the IC50 in test [5] (setting [10]) is over 100 µM; in test [6] (setting [10]), 5.01 µM; in test [7] (setting [10]), over 100 µM; in test [8] it was 3.98 µM. For the same compound, the “Resistance Factor W574L” value in test [5] was over 25. In addition, the “Resistance Factor P197S” value in test [6] was 1. For the same compound, in test [7], the “Resistance Factor S653N” value was over 25.
For the compound `COc1cc(OC)n2nc(S(=O)(=O)Nc3c(Cl)ccc(C)c3Cl)nc2n1` [Metosulam, metosulam], in test [1], the “pI50 P197S & W574L” value was 5.2. Also, in test [1], the “Resistance Factor P197S & W574L” value is on record as 2512. In addition, the “pI50 S653N & W574L” value in test [2] was 6.4. Further, in test [2], the “Resistance Factor S653N & W574L” value is 158. Also, the results for the pest or weed control at 30 g/ha in test [3] (setting [11]) and in test [4] (setting [11]) were 100% and 35%, respectively. The IC50 was 20 µM in test [5] (setting [10]), 1.58 µM in test [6] (setting [10]), 0.00631 µM in test [7] (setting [10]) and 0.00251 µM in test [8]. The “Resistance Factor W574L” value in test [5] was found to be 7943. In addition, the “Resistance Factor P197S” value in test [6] was found to be 631. Also, in test [7], the “Resistance Factor S653N” value is given as 3.
For the compound `COc1cc(OC)nc(NC(=O)NS(=O)(=O)c2ncccc2C(=O)N(C)C)n1` [Nicosulfuron, nicosulfuron], the “pI50 P197S & W574L” value in test [1] was 4.5. Further, the “Resistance Factor P197S & W574L” value in test [1] is on record as 251. Besides, the “pI50 S653N & W574L” value in test [2] was 4.3. The “Resistance Factor S653N & W574L” value in test [2] was 398. Besides, the figures for the pest or weed control at 60 g/ha in test [3] (setting [12]) and in test [4] (setting [12]) were 100% and 55%, respectively. For the same compound, the IC50 in test [5] (setting [10]) is over 100 µM; in test [6] (setting [10]), 1 µM; in test [7] (setting [10]) it was 2.51 µM; in test [8], 0.126 µM. The “Resistance Factor W574L” value in test [5] was over 794. The “Resistance Factor P197S” value in test [6] amounted to 8. Moreover, in test [7], the “Resistance Factor S653N” value amounted to 20.
As to `COc1cc(OC)n2nc(NS(=O)(=O)c3c(C(F)(F)F)ccnc3OC)nc2n1` [Pyroxsulam, pyroxsulam], in test [1], the “pI50 P197S & W574L” value is 4.8 and the “Resistance Factor P197S & W574L” value is 6310. Moreover, in test [2], the “pI50 S653N & W574L” value is listed as 5.3 and the “Resistance Factor S653N & W574L” value is reported as 1995. Besides, the “% phytotox” value in test [3] (AI dose rate 50 gai/ha) turned out to be 99%. For the same compound, in test [4] (AI dose rate 50 gai/ha), the “% phytotox” value is recorded as 0%. In test [5] (setting [10]), the “pI50 W574L” value is under 4. In addition, the “Resistance Factor W574L” value in test [5] is reported as over 39810. In test [6] (setting [10]), the “pI50 P197S” value amounted to 6.2. Moreover, the “Resistance Factor P197S” value in test [6] is given as 251. For the same compound, the “pI50 S653N” value in test [7] (setting [10]) was found to be 6.8. Besides, the “Resistance Factor S653N” value in test [7] is 63. For the same compound, the “pI50 WT” value in test [8] came out at 8.6.
On to `CCS(=O)(=O)c1cccnc1S(=O)(=O)NC(=O)Nc1nc(OC)cc(OC)n1` [Rimsulfuron, rimsulfuron], for which the “pI50 P197S & W574L” value in test [1] was 5.7. Moreover, in test [1], the “Resistance Factor P197S & W574L” value is 63. Further, the “pI50 S653N & W574L” value in test [2] is reported as 6.3. Besides, in test [2], the “Resistance Factor S653N & W574L” value is 16. Moreover, the pest or weed control at 12.5 g/ha in test [3] (setting [13]) was 100%; in test [4] (setting [13]) it was 68%. In addition, the IC50 is 10 µM in test [5] (setting [10]), 0.398 µM in test [6] (setting [10]), 0.02 µM in test [7] (setting [10]) and 0.0316 µM in test [8]. Also, the “Resistance Factor W574L” value in test [5] is given as 316. Moreover, the “Resistance Factor P197S” value in test [6] is listed as 13. The “Resistance Factor S653N” value in test [7] is 1.
For the compound `CCS(=O)(=O)c1nc2ccccn2c1S(=O)(=O)NC(=O)Nc1nc(OC)cc(OC)n1` [Sulfosulfuron, sulfosulfuron], in test [1], the “pI50 P197S & W574L” value is on record as 3.6. The “Resistance Factor P197S & W574L” value in test [1] was 10000. In addition, the “pI50 S653N & W574L” value in test [2] is 5.4. The “Resistance Factor S653N & W574L” value in test [2] was 158. Besides, the values for the pest or weed control at 10 g/ha in test [3] (setting [14]) and in test [4] (setting [14]) were 100% and 3%, respectively. Besides, the IC50 in test [5] (setting [10]) was over 100 µM; in test [6] (setting [10]), 39.8 µM; in test [7] (setting [10]) it was 0.126 µM; in test [8], 0.0251 µM. Further, the “Resistance Factor W574L” value in test [5] is listed as over 3981. For the same compound, the “Resistance Factor P197S” value in test [6] is reported as 1585. In addition, the “Resistance Factor S653N” value in test [7] came out at 5.
Consider `COC(=O)c1sccc1S(=O)(=O)NC(=O)Nc1nc(C)nc(OC)n1` [Thifensulfuron-Methyl, thifensulfuron-methyl], for which the “pI50 P197S & W574L” value in test [1] is 4.6. For the same compound, in test [1], the “Resistance Factor P197S & W574L” value is 631. The “pI50 S653N & W574L” value in test [2] was 5.4. Moreover, the “Resistance Factor S653N & W574L” value in test [2] is given as 100. Moreover, the pest or weed control at 5 g/ha in test [3] (setting [15]) was found to be 85%; in test [4] (setting [15]) it was 0%. Also, the IC50 is 63.1 µM in test [5] (setting [10]), 7.94 µM in test [6] (setting [10]), 0.2 µM in test [7] (setting [10]) and 0.0398 µM in test [8]. Besides, the “Resistance Factor W574L” value in test [5] came to 1585. Also, in test [6], the “Resistance Factor P197S” value came to 200. In test [7], the “Resistance Factor S653N” value turned out to be 5.
